# Experimental data taken from US6958360B2, “Attractant pheromone for the Colorado potato beetle” (The United States of America as represented by the …, priority 2001, dated 2005).
# Marks after values point to notes of the source that are not given here.
# Key:
# [1] = system: Colorado potato beetle (CPB); assay: Open Y-track olfactometer behavioral bioassay, optical isomers vs solvent control; type: in vivo, Leptinotarsa decemlineata; settings: for orientation preference (in words): serial source loads 0.0001 to 1.0 μg vs solvent control, male and female
# Protocol: Chemical blends and plant foliage were tested for behavioral activity in an open Y-track olfactometer modified after Visser and Piron (Visser, J. H., and P. G. M. Piron, Proceedings of the Section Experimental and Applied Entomology of the Netherlands Entomological Society Amsterdam, 9: 41-46 (1998)) and described in detail by Dickens (Dickens, J. C., Agric. Forest Entomol., 1: 47-54 (1999)). In brief, odorous stimuli emanating from volatile collections from CPB males feeding on potato plants or the male-specific compound on filter paper discs (2.5 cm dia.; Whatman™ #1 filter paper) in Ehrlenmeyer flasks were delivered to either side of the device. Hydrocarbon free air that was humidified by passing through distilled water carried the odor molecules to either arm of the bioassay apparatus. Treatments were replenished after 30 min of use in the bioassay apparatus. Airflow was regulated to 1 l/min by flowmeters. Experiments were conducted in a darkened room at 22° C. in which the only source of light was that associated with the bioassay device. For all bioassays, at least 20 males and 20 females were tested.
# Volatile collections from male CPB feeding for three hours on a potato plant and serial dilutions of the male specific compound were tested as 10 μl aliquots placed on a filter paper disc as described above. The male specific compound was tested at 1.0 μg/10 μl solvent (hexane) and in a dilution series ranging from 0.0001 to 1.0 μg/10 μl solvent.
# Prior to testing at age 7-14 days, unmated insects were held individually in 5.5 oz. cups, provided with fresh potato foliage on a continuous basis, and maintained under incubator conditions of a 16:8 light:dark cycle, 80-90% R.H., and “day” and “night” temperatures of 25° C. and 23° C., respectively. On the day of testing, insects were transferred to smaller 1 oz. cups and held for 1-3 hrs with moist filter paper but no foliage, then held in darkness for an additional 1-2 hrs.
# Individual testing in a darkened room at 22° C. began by allowing the beetle to climb onto or be placed approximately midway up the vertical rod of the “T.” In response to a positive phototaxis to light from a flashlight mounted above the “T” and negative geotaxis, the beetles generally climbed upward. Once the insect began waving its antennae, presumably in response to test odors, its forward progress continued. Orientation was scored as soon as the test insect had moved completely from the horizontal to one of the 45 extension arms of the bioassay device. Following each test, the bioassay device was cleaned with acetone to remove contamination left by the insect. For any given series of tests, approximately half were done with the treatment and associated test apparatus on one side, and half were done with them on the other side.
# Laboratory bioassays were assessed for significant differences by the hypothesis on binomial proportions based on the standard normal approximation (Brase, C. H., and C. P. Brase (1983), Understanding Statistics, Lexington, Mass.: D. C. Heath).
# [2] = system: Colorado potato beetle (CPB); assay: Field test, baited pitfall traps; type: in vivo, Leptinotarsa decemlineata
# Protocol: Insects: Insects were maintained under the same regimen as for laboratory bioassays. Prior to release in the field, adult CPB were combined into pint containers with moistened paper and potato foliage in groups of 25. Insects were removed from foliage ca. 3 hours prior to release.
# Chemical treatments: (S)-CPB I vs. control. CPB I was dissolved into a carrier solution of 20% polyethylene glycol, 42% methanol, 25% glycerol, and 13% distilled water at a concentration of 1 μg/μl. For treatment lures, 500 μl were injected into 1″ long cigarette filters (500 μg CPBI/lure). Control lures consisted of 1″ cigarette filters treated with 500 μl of the carrier solution. Lures were prepared and placed into plastic zip-lock bags for transport to the field. (S)-CPB I+3-component plant blend vs. 3-component plant blend. (Z)-3-hexenyl acetate, (±)-linalool, and methyl salicylate (10 μl each) were added to 3 ml of the carrier solution for a total concentration of 1%. This solution was split into two 1.5 ml samples and CPB I dissolved into one of the samples at a concentration of 1 μg/μl. One treatment consisted of 500 μl of 1% 3-component plant blend injected into 1″ cigarette filters, 500 μl of 1% 3-component plant blend+1 μg/μl CPB I (500 μg CPB I/lure) injected into 1″ cigarette filters comprised the second treatment. Lures were prepared and placed into zip-lock bags for transport to the field.
# Experimental procedure: Six pitfall traps (22 cm diam.×21 cm depth) were set in a hexagonal pattern 6 m diameter in an isolated grass field mowed one day prior to release of insects. One lure was attached to a 1 m vertical yellow posts set through the center of each pitfall trap, with treatment and controls alternating around the hexagonal array. Tacky-trap was laced along the rim of each pitfall trap, and on the center post at trap level, to prevent insect escape. […]
# Statistical analysis: Field tests were assessed for significant differences by a paired t-test (Ostle, B., Statistics in Research (1963), 2nd ed., The Iowa State University Press, Ames, Iowa).
compound,measurement,setting,value
"CC(C)=CCC[C@](C)(O)C(=O)CO [(S)-CPB I, (S)-3,7-dimethyl-2-oxo-oct-6-ene-1,3-diol]",individuals attracted,"[1]; both sexes, from threshold through highest source load tested (1 μg)",80% to 90
same,"behavioral threshold, females","[1]; female CPB, vs solvent control",0.01 μg source load
same,"behavioral threshold, males","[1]; male CPB, vs solvent control",0.001 μg source load
same,orientation preference (in words),[1],attractive
same,orientation preference (in words),[1]; listed as (S)-enantiomer,oriented preferentially
same,"Mean number of CPB captured, Males","[2]; 500 μg CPB I/lure, mean of three replicates, 100 released, control 2.67",9.00*
same,"Mean number of CPB captured, Females","[2]; 500 μg CPB I/lure, mean of three replicates, control 1.33",7.33*
same,"Mean number of CPB captured, Total","[2]; combined mean of six replicates, control 2.00",8.17**
